Assay results from PubChem BioAssay (NCI).
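Dose response: 5 concentrations. Exposure: 48 h. Format: 96-well plates. Endpoint: linear interpolation; highest concentration if not reached. TGI marks complete inhibition of growth.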

Legend:
Experiment in all cases: DTP human tumour cell line panel, 48 h
[1] = test system: COLO 205 colon
[2] = test system: NCI-H226 lung
[3] = test system: SW-620 colon
[4] = test system: MOLT-4 leukemia
[5] = test system: MDA-MB-435
[6] = test system: CAKI-1 renal
[7] = test system: UO-31 renal
[8] = test system: SN12C renal
[9] = test system: OVCAR-3 ovarian
[10] = test system: ACHN renal
[11] = test system: SK-MEL-28 melanoma

SMILES	TGI [1] [µM]	TGI [2] [µM]	TGI [3] [µM]	TGI [4] [µM]	TGI [5] [µM]	TGI [6] [µM]	TGI [7] [µM]	TGI [8] [µM]	TGI [9] [µM]	TGI [10] [µM]	TGI [11] [µM]
Nc1ccc2nc(-c3ccccn3)c(-c3ccccn3)nc2c1	> 100	> 100	> 100	> 100	> 100	> 100	> 100	> 100	> 100	> 100	> 100
CC(C)=CCOC(=O)C(C)=[N+]=[N-]	> 100	> 100	> 100	> 100	> 100	> 100	> 100	> 100	> 100	> 100	> 100
Brc1ccc(CCNCCN2CCCCC2)cc1	25.6	59	31.1	> 100	18.2	29.2	24.6	58.5	29.7	42.6	24.1
CC1(C)OCC(COC(=O)C=[N+]=[N-])O1 (centres undefined)	> 100	> 100	> 100	> 100	> 100	> 100	> 100	> 100	> 100	> 100	> 100
O=C(O)c1c2c(cc3c1CC1(Cc4ccccc4C1)C3)CCC2	> 100	> 100	> 100	> 100	> 100	> 100	> 100	> 100	> 100	> 100	> 100
Cc1ccc(C(=O)Nc2ccc(CP(=O)(O)O)cc2CP(=O)(O)O)cc1NC(=O)c1cccc(N)c1	> 100	> 100	> 100	> 100	> 100	> 100	> 100	> 100	> 100	> 100	> 100
COc1ccc(-n2c(=O)c3[nH]cnc3n(-c3ccc(OC)cc3)c2=S)cc1	> 100	> 100	> 100	> 100	> 100	> 100	> 100	> 100	> 100	> 100	> 100
Cc1nnc2n1N=C(c1cc(F)c(Cl)cc1Cl)/C(=C/c1ccc(Cl)cc1)S2	> 100	63.4	> 100	> 100	29.1	41.4	27.4	36	25.2	41.7	> 100
c1ccc2c(c1)OC(N1CCCC1)c1cnc(N3CCCC3)nc1-2 (centres undefined)	> 100	> 100	> 100	70.5	> 100	78	87.7	> 100	97.5	> 100	> 100
